US6511959B1, “Use of calcium-activated neutral protease (CANP) inhibitors in pharmaceutical preparations” (Norsk Hydro AS, priority 1991, dated 2003)
Square brackets hold non-standard residues; d marks the D form. Peptide text beside a SMILES is read from it. Nle = CCCC[C@H](N)C(=O)O

What was measured:
[1] = test system: human NHIK 3025 cervix carcinoma cells; experiment: Cell survival (colony formation) of cervix carcinoma cells; assay type: cell-based; conditions: 24 hours treatment, colonies scored after 12 to 14 days
From the text: Human cells of the established line […], originating from a cervical carcinoma in situ (Nordbye, K. and Oftebro, R., 1969, Exp. Cell Res., 58:458 and Oftebro, R. and Nordbye, K., 1969, Exp. Cell Res., 58:459) were cultivated in medium Eagles minimum essential medium (MEM) supplemented with 10% fetal bovine serum and antibiotics. Cells were routinely grown as monolayers in tissue culture flasks. The cells were kept in continuous exponential growth by frequent reculturing every second or third day. During reculturing, as well as during experiments, the cells were kept in humidified CO2 incubators at 37° C.
In the experiments represented in this example, the proteinaceous CANP inhibitor was additionally purified by gel filtration chromatography.
Cell survival studies were performed by adding inhibitors to exponentially growing, asynchronous cells 2 hours after seeding the cells into plastic Petri dishes at known cell densities. The inhibitor treatment period was 24 hours after which the dishes were rinsed with warm (37° C.) Hanks' balanced salt solution and fresh medium without inhibitor, was added. After 12 to 14 days of incubation (with a medium shift on day 7) colonies of cells were fixed in ethanol and stained with methylene blue. Only colonies containing more than 40 cells were scored as survivors. The percent cell survival is calculated relative to untreated, control dishes.

[2] = test system: Walker rat tumors; experiment: Calpain inhibitor I and II on growth of Walker rat tumors in vivo; design: species or system Wistar rats; conditions: liposomal, 27 mg/100 g rat daily i.p.
Procedure: Male Wistar rats were injected with 10×10^6 Walker tumor cells per rat at the inguinal region. Treatment was started when measurable tumors appeared. Each treatment group consisted of 5 rats. […] Rats were treated with 2 ml liposomal solution of inhibitors at a concentration of 13.5 mg/ml, equivalent to 27 mg/100 g rat, daily by intraperitoneal injection. Rats in the control group received daily injections of saline-filled liposomes. Tumor volume was determined by measuring two diameters with calipers. The data is presented in FIG. 3 in which each data point represents the mean±S.E. tumor volume measurements for 5 rats.

[3] = test system: M-cells; experiment: Cytological changes of cell cultures in continuous presence of the inhibitors; assay type: cell-based, human; conditions: continuous presence 72 and 120 h, 2 mg/ml trypsin-chymotrypsin inhibitor, 1 mg/ml aprotinin, leupeptin or E64
Procedure: (§1) a) Cytological Changes of Cell Cultures in Continuous Presence of the Inhibitors
(§2) The following samples were made up in RPMI-1640 complete medium:
(§3) 2. 2 mg/ml trypsin-chymotrypsin inhibitor
(§4) 6. all five inhibitors at the above mentioned concentrations
(§5) 7. RPMI-1640 medium with no inhibitor addition to serve as a control medium.
(§6) Ten glass Petri dishes (5 cm diameter) were seeded each with 1×10^6 M-cells and another ten dishes were seeded each with 1×10^6 P-cells. Duplicate cell cultures received each type of complete medium containing the inhibitors and control cultures received only complete medium. The cell cultures were incubated at 37° C. in a humidified CO2-incubator for 120 hours. The culture medium was changed with fresh medium containing the same inhibitors at 24 and 72 hours after start of the experiment. Half of the cell cultures were fixed in 50% ethanol 72 hours and the other half 120 hours after initiation of the experiment. All cell cultures were stained according to the Papanicolaou method.

[4] = test system: P-cells; experiment: as above; assay type: cell-based, human; conditions: continuous presence 72 and 120 h, 2 mg/ml trypsin-chymotrypsin inhibitor, 1 mg/ml aprotinin, leupeptin or E64
Procedure: as §1, §2, §3, §4, §5, §6

Row | Compound | cytotoxic effect (cell survival, FIG. 1) [1] | anticancer effect (tumor volume, FIG. 3) [2] | effect on growth or cytology compared to control cell cultures [3] | effect on growth or cytology compared to control cell cultures [4] | tumor regression ([2]; 5 doses)
1 | CSCC[C@@H](C=O)NC(=O)[C@H](CC(C)C)NC(=O)[C@H](CC(C)C)NC(C)=O [calpain inhibitor II, N-Acetyl-Leu-Leu-Methioninal] (Ac-Leu-Leu-Met-aldehyde) | slightly greater cytotoxicity than aprotinin | anticancer effect from the fourth dose |  |  | 
2 | CC(=O)N[C@@H](CC(C)C)C(=O)N[C@@H](CC(C)C)C(=O)N[C@H](C=O)CCCNC(=N)N [leupeptin, N-acetyl-L-leucyl-L-leucyl-L-arginal] | little cytotoxic effect |  | did not affect the growth or cytology | did not affect the growth or cytology | 
3 | aprotinin |  |  | did not affect the growth or cytology | did not affect the growth or cytology | 
4 | CC(C)C[C@H](NC(=O)[C@H]1O[C@@H]1C(=O)O)C(=O)NCCCCN=C(N)N (relative stereo) [E64, L-trans-3-carboxy-oxiran-2-carbonyl-L-leucylagmatine] | little cytotoxic effect |  | did not affect the growth or cytology | did not affect the growth or cytology | 
5 | CCCC[C@@H](C=O)NC(=O)[C@H](CC(C)C)NC(=O)[C@H](CC(C)C)NC(C)=O [calpain inhibitor I, N-Acetyl-Leu-Leu-Norleucinal] (Ac-Leu-Leu-[Nle]-aldehyde) |  |  |  |  | approximately 92%
